Measured values published in patent publication US9271978B2 (Zenith Epigenetics Corp., priority 2012, dated 2016).

How the values were obtained:
[1] = biological target: T1, Brd4 bromodomain 1 (BRD4(1)) (Homo sapiens, UniProt O60885); test: Inhibition of tetra-acetylated histone H4 binding to Brd4 bromodomain 1 (TR-FRET); set-up: key: Active: Compounds with an IC50 value less than 30 μM were deemed to be active.; Not Active: Compounds with an IC50 value less than 30 μM were deemed to be active; details: tetra-acetylated histone H4 peptide, active = IC50 <30 μM
T1 construct: Illustrative results with the first bromodomain of Brd4; made in house; host or cells: E. coli BL21 (DE3)
How it was run: (§1)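 IC50 values come from dose-response curves of the 665 nm to 620 nm TR-FRET signal decrease, measured after 2 h at room temperature. Reactions contained 200 nM E. coli-expressed His-tagged bromodomain, 25-50 nM biotinylated tetra-acetylated H4 peptide, Eu-streptavidin plus XL665 anti-His antibody, with 30 mM HEPES pH 7.4, 320 mM KF and 0.2% DMSO.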

[2] = biological target: T2, second bromodomain of Brd2 (BRD2(2)) (Homo sapiens, UniProt P25440); test: Inhibition of tetra-acetylated histone H4 binding to Brd2 bromodomain 2 (TR-FRET); set-up: key: Active: Compounds with an IC50 value less than 30 μM were deemed to be active.; Not Active: Compounds with an IC50 value less than 30 μM were deemed to be active; details: tetra-acetylated histone H4 peptide, active = IC50 <30 μM
T2 construct: made in house; host or cells: E. coli BL21 (DE3)
How it was run: as §1

[3] = tested on: ApoA-I mRNA; test: Up-regulation of hApoA-1 mRNA transcription in Huh7 cells; format: cell-based, human; set-up: key: Active: Compounds with an EC170 value less than 30 μM were deemed to be active; details: 48 h treatment, ApoA-I mRNA by real-time PCR, Active = EC170 less than 30 μM
How it was run: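 Huh7 cells treated with compound for 48 h. ApoA-I mRNA was then quantified in captured mRNA by one-step real-time RT-PCR. Fold induction calculated from Ct values relative to the matching DMSO control; EC170 is the concentration for 170% of control expression.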

[4] = tested on: hIL-6 mRNA; test: Inhibition of hIL-6 mRNA transcription in U937 cells; format: cell-based, human; set-up: key: Active: Compounds with an IC50 value less than 30 μM were deemed to be active.; Not Active: Compounds with an IC50 value less than 30 μM were deemed to be active; details: LPS stimulation, active = IC50 <30 μM
How it was run: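 Readout is one-step real-time PCR of hIL-6 mRNA, normalized to an internal control and given as fold induction versus control. Cells: PMA (60 ng/mL, 3 days)-differentiated U937 macrophages, compound added 1 h before 1 ug/mL LPS, harvested after 3 h at 37° C.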

[5] = tested on: c-myc; test: Inhibition of c-myc expression in MV4-11 cells (mRNA, real-time PCR); format: cell-based; set-up: key: Active: Compounds with an IC50 value less than 30 μM were deemed to be active.; Not Active: Compounds with an IC50 value less than 30 μM were deemed to be active; details: Human AML MV4-11 cells, 3 h incubation
How it was run: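 Duplex RT-qPCR of c-myc against cyclophilin cDNA gave IC50 from a dose–response curve. Input was isolated mRNA from 2.5×10^4 MV4-11 cells after 3 h exposure at 37 °C to compound or 0.1% DMSO vehicle.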

[6] = tested on: human AML MV-4-11 (CRL-9591) cells; test: Inhibition of cell proliferation in MV4-11 cells; format: cell-based; set-up: key: Active: Compounds with an IC50 value less than 30 μM were deemed to be active.; Not Active: Compounds with an IC50 value less than 30 μM were deemed to be active; details: human AML MV-4-11 cells, 72 h; active = IC50 <30 μM
How it was run: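 IC50 values come from blank-corrected proliferation relative to DMSO controls, read as 490 nm absorbance 3–4 h after CellTiter Aqueous One addition. Before that, cells seeded at 5×10^4/well were exposed for 72 h (37° C, 5% CO2) to triplicate two-fold compound dilutions spanning 30–0.2 μM.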

T2 sequence (P25440 344-453 limits assumed): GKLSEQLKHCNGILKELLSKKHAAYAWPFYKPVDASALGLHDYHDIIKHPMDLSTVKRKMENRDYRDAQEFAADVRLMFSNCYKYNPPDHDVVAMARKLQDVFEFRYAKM

| SMILES | FRET activity (IC50 <30 μM) BRD4(1) [1] | FRET activity (IC50 <30 μM) BRD2(2) [2] | ApoA-1 activity (EC170 <30 μM) [3] | IL-6 activity (IC50 <30 μM) [4] | c-myc activity (IC50 <30 μM) [5] | Cell Proliferation activity (IC50 <30 μM) [6] | melting point [°C] |
| --- | --- | --- | --- | --- | --- | --- | --- |
| Cc1noc(C)c1-c1ccc(=O)n(C(C)c2ccc(Cl)cc2)c1 (stereo not drawn) [Example 105, 1-(1-(4-Chlorophenyl)ethyl)-5-(3,5-dimethylisoxazol-4-yl)pyridin-2(1H)-one] | Active | Active | Active | Active | Active | Active | – |
| Cc1noc(C)c1-c1ccc(=O)n([C@H](C)c2ccccc2)n1 [Example 108, (R)-6-(3,5-Dimethylisoxazol-4-yl)-2-(1-phenylethyl)pyridazin-3(2H)-one] | Active | Active | Active | Active | Active | Active | – |
| Cc1noc(C)c1-c1ccc(=O)n([C@@H](C)c2ccccc2)n1 [Example 109, (S)-6-(3,5-Dimethylisoxazol-4-yl)-2-(1-phenylethyl)pyridazin-3(2H)-one] | Active | Active | Active | Active | Active | Active | – |
| COc1ccc(Cn2nc(-c3cc(OC)c(OC)c(OC)c3)ccc2=O)cc1 [Example 117, 2-(4-Methoxybenzyl)-6-(3,4,5-trimethoxyphenyl)pyridazin-3(2H)-one] | Active | Active | Active | Active | Not Active | Not Active | – |
| COc1cc(-c2ccc(=O)n(Cc3ccccc3C#N)n2)cc(OC)c1OC [Example 118, 2-((6-Oxo-3-(3,4,5-trimethoxyphenyl)pyridazin-1(6H)-yl)methyl)benzonitrile] | Active | Active | Active | Active | Not Active | Active | – |
| COc1cccc(Cn2nc(-c3cc(OC)c(OC)c(OC)c3)ccc2=O)c1 [Example 119, 2-(3-Methoxybenzyl)-6-(3,4,5-trimethoxyphenyl)pyridazin-3(2H)-one] | Active | Active | Active | Active | Not Active | Active | – |
| Cc1noc(C)c1-c1ccc(=O)n(C(C)c2ccccc2)c1 (stereo not drawn) [Example 125, 5-(3,5-Dimethylisoxazol-4-yl)-1-(1-phenylethyl)pyridin-2(1H)-one] | Active | Active | Active | Active | Active | Active | – |
| Cc1noc(C)c1-c1ccc(=O)n(Cc2ccc(F)cc2)c1 [Example 132, 5-(3,5-Dimethylisoxazol-4-yl)-1-(4-fluorobenzyl)pyridin-2(1H)-one] | Active | Active | Active | Active | Active | Active | – |
| Cc1noc(C)c1-c1ccc(=O)n(Cc2ccc3[nH]cnc3c2)c1 [Example 146, 1-((1H-benzo[d]imidazol-5-yl)methyl)-5-(3,5-dimethylisoxazol-4-yl)pyridin-2(1H)-one] | Active | Active | Active | Active | Active | Not Active | – |
| Cc1noc(C)c1-c1ccc(=O)n(Cc2ccc(F)c(Cl)c2)c1 [Example 147, 1-(3-Chloro-4-fluorobenzyl)-5-(3,5-dimethylisoxazol-4-yl)pyridin-2(1H)-one] | Active | Active | Active | Active | Active | Active | – |
| Cc1noc(C)c1-c1ccc(=O)n(Cc2ccc3[nH]ncc3c2)c1 [Example 148, 1-((1H-Indazol-5-yl)methyl)-5-(3,5-dimethylisoxazol-4-yl)pyridin-2(1H)-one] | Active | Active | Active | Active | Active | Active | – |
| Cc1noc(C)c1-c1ccc(=O)n(Cc2cccc3[nH]ccc23)c1 [Example 149, 1-((1H-Indol-4-yl)methyl)-5-(3,5-dimethylisoxazol-4-yl)pyridin-2(1H)-one] | Active | Active | Active | Active | Active | Active | – |
| COc1ccccc1Cn1cc(-c2c(C)noc2C)ccc1=O [Example 162, 5-(3,5-Dimethylisoxazol-4-yl)-1-(2-methoxybenzyl)pyridin-2(1H)-one] | Active | Active | Active | Active | Active | Active | – |
| COc1ccc(-c2cn(Cc3ccccc3)c(=O)c3ccccc23)cc1OC [Example 166, 2-Benzyl-4-(3,4-dimethoxyphenyl)isoquinolin-1(2H)-one] | Active | Not Active | – | – | – | – | 174 to 176 |
